Measured values reported in patent US6740648B2, “Treatment of pulmonary hypertension” (Warner-Lambert Company, priority 2000, dated 2004).
“Also recorded” adds a separate entry of the source. Where a name gives a salt, the structure may show the parent alone.

Experiments:
[1] = Example 3: placebo-controlled study of YM087 40 mg IV twice, relief of pulmonary congestion in exacerbation of congestive heart failure; type: in vivo, human; settings: FIG. 8; listed as conivaptan, hydrochloride
Procedure: Patient who meets the inclusion criteria will then be randomized to 1 of 2 treatment group: double-blind treatment phase. […] Patients were administered 100% oxygen for 5 to 10 minutes, and blood gases were measured for assessment of A-a gradient. A baseline respiratory rate is measured 5 minutes prior to administration of study medication (RR must be ≧22 to meet inclusion criteria). […] All patients received usual care at the discretion of the investigator including IV loop diuretics, oxygen, morphine, and IV vasodilators. All patients were administered IV furosemide 20 mg as a minimum dose initially. No additional doses of diuretics should be administered for at least 2 hours after administration of the first dose of study medication; the dose was subsequently adjusted as needed based on the patient's clinical status at the discretion of the investigator. […] Body weight was assessed prior the second dose of study medication. […] During the study, the patient should be receiving the same % oxygen for all respiratory rate and A-a gradient assessments. […] Clinical laboratory parameters were assessed 8 and 24 hours after the first dose of study medication. Serum electrolytes, BUN, and creatinine were measured 4, 8, 12, 18, and 24 hours after administration of the first dose of study medication.

[2] = Example 2: placebo-controlled study of YM087 20 mg IV twice, relief of pulmonary congestion in acute decompensated heart failure; type: in vivo, human; settings: listed as conivaptan, hydrochloride
Procedure: The trial explores the effect on relief of pulmonary congestion in patients with a history of NYHA Class II-IV heart failure hospitalized in a monitored unit for acute decompensated heart failure. Patients may be on background therapy optionally with ACE-inhibitors, diuretics, digoxin, and β-blockers as long as these medications (excepting diuretics) were initiated prior to admission. On arrival to the hospital, the patient was assessed for enrollment criteria. If the criteria are met, consent was obtained and the patient enrolled. Patients needing treatment with a parenteral inotropic agent (eg milrinone; dobutamine) or who are intubated are excluded. Respiratory rate will be measured. Clinical laboratory parameters are measured if not assessed within 2 hours of screening. Once consented, the patient's clinical distress was assessed by vital signs, the Acute Heart Failure Score, the Physician/Study Coordinator Clinical Assessment Scale for patient's respiratory and global status, and the Patient Visual Analog Scale for respiratory and global status. […] The baseline respiratory rate was measured 5 minutes prior to administration of study medication (must be ≧24 to meet inclusion criteria). […] Clinical laboratory parameters were assessed 8 and 24 hours after start of the first infusion of study medication. […]

[3] = Example 1: double-blind, placebo-controlled IV dose-response study of cardiopulmonary hemodynamics in patients with Class III/IV heart failure; type: in vivo, human
Procedure: Patients must be receiving background therapy of diuretics, ACE inhibitors, and optionally digoxin and/or β-blocker; patients are stratified as to whether they are receiving concomitant β-blocker treatment. Patients should take their daily dose of concomitant heart failure medications within 2 hours of catheter insertion. No additional doses of background heart failure medications should be administered during the study treatment phase. After insertion of a balloon-flotation pulmonary artery catheter, serial measurements are obtained over an 8-to 18-hour baseline and stabilization period.
Hemodynamic parameters and vital signs are measured at baseline during the 2 hours prior to drug administration and 30 minutes, 1, 2, 3, 4, 6, 8, and 12 hours after start of the IV infusion. A urethral catheter is placed and urine output is measured hourly for 2 hours prior until 12 hours post-study drug administration. Fluid intake is restricted to 250 mL every 2 hours (except at time of IV infusion) from time of insertion of a Swan-Ganz catheter and throughout the treatment period. […] Serum electrolytes, BUN, creatinine, and serum osmolality are measured at baseline and 4 and 12 hours post treatment. Clinical laboratory and vasopressin plasma levels are measured at baseline and 12 hours post-drug administration. A numeric rating scale for assessing dyspnea is administered at baseline and 12 hours after study drug administration.
Patients refrain from taking concomitant heart failure medications during the 12-hour treatment period. Patients are stratified as to whether they are receiving concomitant treatment with a β-blocker. Hemodynamic parameters (cardiac output, intrapulmonary and systemic pressures) and vital signs are measured at 0.5, 1, 2, 3, 4, 6, 8, and 12 hours after start of the IV infusion. Clinical laboratory and vasopressin plasma levels are measured 12 hours postdose. […] Serum electrolytes, BUN, creatinine and serum osmolality are measured at 4 and 12 hours posttreatment. Hourly urine output measurements are obtained during the entire 12-hour treatment phase. The numeric rating scale for assessing dyspnea is administered 12 hours postadministration of study medication.
For this study, hemodynamic efficacy parameters of PCWP, CI, SVR, and PVR are evaluated in terms of their response profile. The response profile is assessed in terms of peak change, and area under the curve (AUC) delimited by the parameter change from baseline and measurement times. The peak change is defined as the maximum change from baseline, within the 3 to 6 hours after treatment administration, in the hemodynamic parameter of interest. The baseline value is considered the last acceptable measurement taken before treatment administration. The AUC is determined using the “linear trapezoidal rule,” which delimits areas of each trapezoid by: two points on the graph of change from baseline against time, perpendiculars from the points to the X-axis, and the X-axis are summed up to get AUC. If measurements are missing at certain times, the AUC are calculated using all other available observations. Dose response over the treatment groups are assessed for selected measures.
The secondary parameter of urine output is summarized at baseline, and each collection time. In addition, a numeric rating scale is used for assessing dyspnea. The corresponding change from baseline for these parameters is summarized. Descriptive summaries include mean, standard error, median, minimum, and maximum. Other concurrently measured hemodynamic parameters (ie, RA, PAs, PAd, cuff SBP, cuff DBP, calculated MAP, and HR) is also summarized.
Hemodynamic assessments are obtained at baseline and at 0.5, 1, 2, 3, 4, 6, 8, and 12 hours after administration of study medication.

[4] = tested on: AVP-induced platelet aggregation; assay: AVP-induced platelet aggregation in Phase I subjects (evidence of V1A antagonist activity); type: in vivo, human; settings: 20 mg/day orally or 2.5 mg IV
[5] = Safety and tolerability in Phase I studies (approximately 250 subjects); type: in vivo, human
[6] = tested on: AVP-induced dermal vasoconstriction; assay: AVP-induced dermal vasoconstriction in Phase I subjects; type: in vivo, human; settings: 50 mg IV
[7] = target: T1, V2-receptor (Homo sapiens, UniProt P30518); assay: Aquaretic action in normal subjects (evidence of V2-receptor antagonism); type: in vivo; settings: for Dose at which aquaretic action with decrease in urine osmolarity starts: normal subjects
T1 construct: from tissue; host or cells: healthy human subjects in vivo (renal effect)

[8] = approximately 250 subjects treated

T1 sequence (P30518 whole entry): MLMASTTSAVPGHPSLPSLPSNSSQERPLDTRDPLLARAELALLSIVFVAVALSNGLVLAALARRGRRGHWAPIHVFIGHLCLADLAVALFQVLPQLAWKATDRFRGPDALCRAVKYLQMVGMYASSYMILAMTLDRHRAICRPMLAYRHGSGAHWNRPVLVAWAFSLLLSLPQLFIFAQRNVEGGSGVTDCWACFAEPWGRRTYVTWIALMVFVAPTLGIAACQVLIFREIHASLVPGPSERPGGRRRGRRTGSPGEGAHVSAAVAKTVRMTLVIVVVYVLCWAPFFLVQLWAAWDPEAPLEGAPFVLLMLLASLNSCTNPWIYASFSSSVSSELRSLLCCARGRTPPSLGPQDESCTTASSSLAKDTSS

In the case of `Cc1nc2c([nH]1)-c1ccccc1N(C(=O)c1ccc(NC(=O)c3ccccc3-c3ccccc3)cc1)CC2` [YM087, N-[4-(2-methyl-4,5,6-tetrahydroimidazo[4,5-d][1]benzazepin-6-ylcarbonyl)phenyl]biphenyl-2-carboxamide hydrochloride], the “Alveolar-arterial gradient compared to placebo” value [1] was “improved; also recorded: apparent improvement”, the “Patient visual analog scale of respiratory status” value ([2]; FIG. 6) was “improved respiratory status; also recorded: improvement” and the “Patient numeric rating scale of respiratory status” value ([2]; FIG. 7) was “improved respiratory status; also recorded: improvement”. The “Reduction of right atrial pressure (RAP)” value ([3]; 40 mg IV dose, FIG. 1) was at most 3 mm Hg, the “Reduction of pulmonary artery systolic pressure (PAs)” value ([3]; 40 mg IV dose, FIG. 2) was at most 4 mm Hg and the “Right atrial pressure (RAP)” value ([3]; FIG. 1) was “reduce”. For the same compound, the “Pulmonary artery systolic pressure (PAS)” value ([3]; FIG. 2) was “reduce”, the “Mean arterial pressure (MAP)” value ([3]; FIG. 3) was “no effect” and the “Systolic blood pressure (SBP)” value ([3]; FIG. 4) was “no effect”. For the same compound, the Systemic hemodynamics ([3]; human, in vivo) was “no effect”, the “Changes in inspiratory crackles compared to placebo” value ([3]; post IV dose of 10, 20, 40 mg, FIG. 9) was “fewer patients on conivaptan had worsened inspiratory crackles” and the “Inhibition of AVP-induced platelet aggregation” value [4] was “Inhibition”. For the same compound, the “Tolerability of aquaretic effects at higher doses” value ([5]; 120 mg QD or 60 mg BID orally, or 50 mg IV) was “too uncomfortable to be tolerable”, the “Drug-related serious adverse events” value [5, 8] was “no drug-related serious adverse events were reported” and the Major safety concerns [5, 8] was “no major safety concerns were identified”. The Urinary osmolarity ([5]; at higher doses) was “decreased”, the Plasma osmolarity ([5]; at higher doses, with or without an increase in plasma sodium) was “increased” and the “Biochemical or hematological laboratory parameters” value ([5]; human, in vivo) was “No drug-related trend”. The “Most frequent adverse events regardless of treatment association” value ([5]; human, in vivo) was “mild or moderate thirst and mild headache”, the “Vital signs (blood pressure and heart rate)” value ([5]; human, in vivo) was “unaffected” and the Other adverse events ([5]; human, in vivo, hydrochloride) was “flushes, a sensation of cold extremities, abdominal complaints, abnormal stools, syncope, dizziness, palpitations, and postural hypotension”. For the same compound, the Grand mal seizure ([5]; one patient with severe heart failure, 40 mg BID) was “grand mal seizure that was possibly related to YM087”, the “Leukopenia / decrease in white blood cell counts” value ([5]; three subjects who received YM087, one who received placebo, hydrochloride) was “minor, reversible decrease in white blood cell counts; also recorded: minor, reversible leukopenia” and the “Inhibition of AVP-induced dermal vasoconstriction” value [6] was “Total inhibition”. The “Duration of increased urine production rate postdosing” value ([7]; IV 50 mg/day) was at most 6 h, the “Duration of increased urine production rate postdosing” value ([7]; IV doses up to 250 μg/kg) was “up to 3 hours” and the “Dose at which aquaretic action with decrease in urine osmolarity starts” value ([7]; IV) was 0.05 mg/kg. The “Dose at which aquaretic action with decrease in urine osmolarity starts” value ([7]; oral) was 15 mg.
